Source: the supplement of paper PMC10307832

Assays:
Assay in all cases: relative viability (nuclei count vs DMSO), 5 days (fraction); higher = more cells survive
[1] = compound: COc1cc(-c2nn([C@H]3CC[C@H](N4CCN(C(C)=O)CC4)CC3)c3ncnc(N)c23)ccc1NC(=O)c1cc2ccccc2n1C + N=C(N)NC(=N)NCCc1ccccc1 [Phenformin] (partner 250 µM)
Outline: (§1)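 Relative viability divides the nuclei count in treated wells by that in vehicle wells. Lung cancer cell lines were seeded in 1536-well plates, dosed by pin tool the next day, and fixed and stained after 5 days in one step with final 0.05% Triton X-100, 1% formaldehyde and 1 ug/ml Hoechst. Dosing was a single drug or a fixed anchor-drug dose plus five library-drug doses (not always all listed) in √10 steps, and values are medians of duplicate plates imaged at 4×.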

Midostaurin + AZD7762 = compound: CO[C@@H]1[C@H](N(C)C(=O)c2ccccc2)C[C@H]2O[C@]1(C)n1c3ccccc3c3c4c(c5c6ccccc6n2c5c31)C(=O)NC4 [Midostaurin] + NC(=O)Nc1cc(-c2cccc(F)c2)sc1C(=O)N[C@H]1CCCNC1 [AZD7762] (partner 0.2 µM)
Outline: as §1

[2] = compound: COc1cc(-c2nn([C@H]3CC[C@H](N4CCN(C(C)=O)CC4)CC3)c3ncnc(N)c23)ccc1NC(=O)c1cc2ccccc2n1C + O=C(c1cc(Cc2n[nH]c(=O)c3ccccc23)ccc1F)N1CCN(C(=O)C2CC2)CC1 [Olaparib] (partner 8 µM)
Outline: as §1

Midostaurin + Trametinib = compound: CO[C@@H]1[C@H](N(C)C(=O)c2ccccc2)C[C@H]2O[C@]1(C)n1c3ccccc3c3c4c(c5c6ccccc6n2c5c31)C(=O)NC4 [Midostaurin] + CC(=O)Nc1cccc(-n2c(=O)n(C3CC3)c(=O)c3c(Nc4ccc(I)cc4F)n(C)c(=O)c(C)c32)c1 [Trametinib] (partner 0.02 µM)
Outline: as §1

Midostaurin + Luminespib = compound: CO[C@@H]1[C@H](N(C)C(=O)c2ccccc2)C[C@H]2O[C@]1(C)n1c3ccccc3c3c4c(c5c6ccccc6n2c5c31)C(=O)NC4 [Midostaurin] + CCNC(=O)c1noc(-c2cc(C(C)C)c(O)cc2O)c1-c1ccc(CN2CCOCC2)cc1 [Luminespib] (partner 0.01 µM)
Outline: as §1

| Cell Line | relative viability ([1]; first compound 0.0128 µM) | relative viability ([1]; first compound 0.04048 µM) | relative viability ([1]; first compound 0.128 µM) | relative viability ([1]; first compound 1.28 µM) | relative viability (Midostaurin + AZD7762; first compound 0.01 µM) | relative viability (Midostaurin + AZD7762; first compound 0.03162 µM) | relative viability (Midostaurin + AZD7762; first compound 0.1 µM) | relative viability (Midostaurin + AZD7762; first compound 0.3162 µM) | relative viability ([2]; first compound 0.0128 µM) | relative viability ([2]; first compound 0.04048 µM) | relative viability ([2]; first compound 0.128 µM) | relative viability ([2]; first compound 1.28 µM) | relative viability (Midostaurin + Trametinib; first compound 0.01 µM) | relative viability (Midostaurin + Trametinib; first compound 0.03162 µM) | relative viability (Midostaurin + Trametinib; first compound 0.1 µM) | relative viability (Midostaurin + Trametinib; first compound 0.3162 µM) | relative viability (Midostaurin + Luminespib; first compound 0.01 µM) | relative viability (Midostaurin + Luminespib; first compound 0.03162 µM) | relative viability (Midostaurin + Luminespib; first compound 0.1 µM) | relative viability (Midostaurin + Luminespib; first compound 0.3162 µM) |
| --- | --- | --- | --- | --- | --- | --- | --- | --- | --- | --- | --- | --- | --- | --- | --- | --- | --- | --- | --- | --- |
| HCC-78 | 0.734 | 0.789 | 0.601 | 0.37 | 0.682 | 1.09 | 0.644 | 0.483 | 0.938 | 0.933 | 0.768 | 0.456 | 0.757 | 0.612 | 0.739 | 0.463 | – | – | – | – |
| HCC-366 | 0.566 | 0.664 | 0.623 | 0.658 | 0.235 | 0.373 | 0.273 | 0.0975 | 0.394 | 0.328 | 0.361 | 0.252 | 0.304 | 0.33 | 0.283 | 0.122 | – | – | – | – |
| HCC-827 | 0.384 | 0.396 | 0.406 | 0.39 | 0.246 | 0.206 | 0.237 | 0.215 | 0.657 | 0.572 | 0.574 | 0.48 | 0.557 | 0.488 | 0.607 | 0.641 | 0.51 | 0.644 | 0.709 | 0.813 |
| HOP-62 | 0.712 | 0.657 | 0.656 | 0.709 | 0.527 | 0.568 | 0.727 | 0.553 | 0.657 | 0.533 | 0.366 | 0.478 | 0.473 | 0.42 | 0.362 | 0.362 | 0.871 | 0.875 | 0.934 | 0.984 |
| IA-LM | – | – | – | – | – | – | – | – | 0.871 | 0.877 | 1.03 | 0.961 | – | – | – | – | – | – | – | – |
| LC-2-ad | 0.642 | 0.552 | 0.593 | 0.503 | 0.873 | 0.878 | 0.843 | 0.724 | 0.783 | 0.835 | 0.658 | 0.8 | 0.906 | 0.918 | 0.749 | 0.9 | 0.953 | 0.955 | 0.925 | 0.996 |
| LCLC-97TM1 | 0.501 | 0.377 | 0.461 | 0.416 | 0.169 | 0.287 | 0.223 | 0.275 | 0.455 | 0.501 | 0.326 | 0.441 | 0.266 | 0.194 | 0.195 | 0.184 | 0.836 | 0.713 | 0.749 | 0.763 |
| NCI-H520 | 0.45 | 0.521 | 0.566 | 0.425 | – | – | – | – | 0.388 | 0.398 | 0.286 | 0.265 | 0.768 | 0.717 | 0.714 | 0.583 | 0.221 | 0.204 | 0.235 | 0.258 |
| NCI-H661 | 0.271 | 0.273 | 0.256 | 0.261 | – | – | – | – | 0.817 | 0.843 | 0.724 | 0.763 | 0.597 | 0.617 | 0.61 | 0.534 | 0.799 | 0.783 | 0.924 | 1.04 |
| NCI-H1299 | – | – | – | – | – | – | – | – | 0.978 | 1.01 | 0.914 | 1.01 | – | – | – | – | – | – | – | – |
| NCI-H1563 | 0.608 | 0.635 | 0.662 | 0.617 | – | – | – | – | – | – | – | – | – | – | – | – | 0.505 | 0.515 | 0.501 | 0.492 |
| NCI-H1623 | 0.622 | 0.508 | 0.603 | 0.53 | – | – | – | – | – | – | – | – | – | – | – | – | 0.526 | 0.647 | 0.513 | 0.632 |
| NCI-H1648 | – | – | – | – | 0.766 | – | – | 0.656 | 0.94 | 0.928 | 1.23 | 0.515 | 0.532 | – | – | 0.432 | – | – | – | – |
| NCI-H1650 | 0.41 | 0.57 | 0.435 | 0.479 | – | – | – | – | 0.822 | 0.894 | 0.804 | 0.731 | 0.64 | 0.587 | 0.594 | 0.694 | 0.19 | 0.175 | 0.187 | 0.173 |
| NCI-H1703 | – | – | – | – | 0.141 | 0.115 | 0.123 | 0.12 | 0.386 | 0.283 | 0.386 | 0.184 | – | – | – | – | – | – | – | – |
| NCI-H2009 | 0.517 | 0.433 | 0.511 | 0.515 | – | – | – | – | 0.706 | 0.714 | 0.674 | 0.69 | 0.263 | 0.262 | 0.292 | 0.319 | 1.05 | 0.954 | 0.936 | 1 |
| NCI-H2023 | 0.404 | 0.426 | 0.355 | 0.323 | – | – | – | – | 0.519 | 0.505 | 0.414 | 0.449 | 0.499 | 0.618 | 0.375 | 0.276 | 0.627 | 0.753 | 0.589 | 0.333 |
| NCI-H2228 | 0.278 | 0.26 | 0.327 | 0.327 | – | – | – | – | 0.711 | 0.948 | 0.567 | 0.459 | 0.522 | 0.634 | 0.792 | 0.723 | 0.155 | 0.163 | 0.164 | 0.134 |
| SK-LU-1 | 0.588 | 0.425 | 0.48 | 0.338 | – | – | – | – | 0.411 | 0.6 | 0.431 | 0.402 | 0.511 | 0.517 | 0.521 | 0.509 | 0.202 | 0.199 | 0.206 | 0.194 |
| SK-MES-1 | 0.785 | 0.708 | 0.587 | 0.631 | – | – | – | – | 0.79 | 0.873 | 0.672 | 0.587 | 0.57 | 0.565 | 0.526 | 0.493 | 0.785 | 0.804 | 0.733 | 0.336 |
| SW 1573 | 0.344 | 0.34 | 0.371 | 0.399 | – | – | – | – | 0.439 | 0.414 | 0.412 | 0.393 | 0.547 | 0.788 | 0.471 | 0.465 | 0.377 | 0.213 | 0.308 | 0.18 |
